Test results from patent US20240317708A1, “INHIBITORS OF TRANSGLUTAMINASES” (ZEDIRA GMBH, priority 2021, published 2024).

What was measured:
[1] = target: T1, recombinant human transglutaminase 2 (Homo sapiens, UniProt P21980); assay: Transglutaminase assay (dansylcadaverine incorporation into dimethylcasein, DCC-assay); format: biochemical; conditions: recombinant human TG2 10 nM, dansylcadaverine/dimethylcasein, 37° C.
T1 construct: purchased Zedira T022
T1 sequence (P21980 1-687): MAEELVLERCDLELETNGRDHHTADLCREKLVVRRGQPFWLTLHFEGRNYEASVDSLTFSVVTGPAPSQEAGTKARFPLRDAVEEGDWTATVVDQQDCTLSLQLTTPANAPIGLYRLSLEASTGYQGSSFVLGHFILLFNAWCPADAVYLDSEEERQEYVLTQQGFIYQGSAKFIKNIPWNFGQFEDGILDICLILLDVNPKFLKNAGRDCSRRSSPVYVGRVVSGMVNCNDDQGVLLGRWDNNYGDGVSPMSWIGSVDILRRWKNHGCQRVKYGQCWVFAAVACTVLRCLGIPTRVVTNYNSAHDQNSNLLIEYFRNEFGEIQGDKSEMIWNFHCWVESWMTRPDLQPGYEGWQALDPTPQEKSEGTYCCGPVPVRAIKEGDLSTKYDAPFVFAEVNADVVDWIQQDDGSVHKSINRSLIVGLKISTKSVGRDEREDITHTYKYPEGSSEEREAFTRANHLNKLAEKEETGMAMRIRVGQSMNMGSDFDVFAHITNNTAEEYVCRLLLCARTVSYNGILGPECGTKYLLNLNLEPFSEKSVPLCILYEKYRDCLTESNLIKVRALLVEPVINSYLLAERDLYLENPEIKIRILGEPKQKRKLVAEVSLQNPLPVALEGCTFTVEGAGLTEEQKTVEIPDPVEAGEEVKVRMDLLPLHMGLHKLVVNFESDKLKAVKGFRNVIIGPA
Description: For the determination of potency of inhibitors against tissue transglutaminase, the incorporation of dansylcadaverine into dimethylcasein (Zedira product T036, Lorand et al., Anal Biochem, 1971, 44:221-31) was measured using recombinant human transglutaminase 2 (Zedira Product T022).
The tissue transglutaminase is diluted in buffer (50 mM Tris-HCl, 7.5 mM CaCl2, 150 mM NaCl, pH=7.4). The final concentration of TG2 in the assay is 10 nM.
A 10 mM inhibitor stock solution is prepared in DMSO, and from this a serial 1:2-fold dilution series is prepared also in DMSO. Each of the initial dilutions is subsequently diluted 1:50-fold with buffer (50 mM Tris-HCl, 7.5 mM CaCl2, 150 mM NaCl, pH=7.4) to yield the final working dilutions containing 2% (v/v) DMSO.
15 μl of inhibitor working dilution are added per well of a 96 well microtiter plate. As control, 15 μl of a 2% (v/v) DMSO solution prepared using the buffer mentioned above are added per well.
Immediately before starting the assay, 600 μl transglutaminase working solution are added to 11.4 ml assay buffer (50 mM Tris-HCl, 10 mM CaCl2, 10 mM glutathione, 2.5% glycerol, 16.7 μM dansylcadaverine, 4 μM N,N-dimethylcasein, 200 mM NaCl, pH=8.0). 285 μl of this reaction mix are added per well containing the inhibitor.
Increase in fluorescence is measured using λex=330 nm and λem=500 nm at 37° C. for 30 min. A slope of the increase in fluorescence between 20 and 30 min is calculated for determination of the IC50 value (inhibitor concentration at which 50% of the initial activity is blocked).
Analysis of enzymatic activity is performed by calculation of the slope of an increase in fluorescence intensity. IC50 values are calculated by plotting the enzymatic activity (as percentage from control containing 2% DMSO instead of inhibitor) against the inhibitor concentration. IC50 is defined as the inhibitor concentration blocking 50% of initial enzyme activity.

[2] = Log D shake flask method (octanol / PBS pH 7.4, HPLC); format: physicochemical; conditions: octanol/phosphate-buffered saline (PBS); octanol / PBS pH 7.4, shake flask
Description: In order to classify the inventive compounds according to their lipophilicity, Log D values (distribution coefficient) were determined by means of the well-established shake flask method, measuring the partition of a compound between an octanol and phosphate-buffered saline (PBS, pH 7.4) by HPLC.

[3] = Caco-2 permeability assay (CacoReady kit); format: in vitro ADME; conditions: human
Description: Permeability coefficients (Papp values) were obtained from Caco-2 barrier studies predicting oral/intestinal bioavailability of the tested compounds. The assays were performed by using CacoReady™ ready-to-use kits from ReadyCell according to the manufacturers protocol.

Row | Compound | IC50 [1] [nM] | logD [2] | Papp [3] [×10⁻⁶ cm/s]
1 | COC(=O)/C=C/CC[C@H](NC(=O)c1sc(Br)cc1Br)C(=O)Nc1cccn(CC(=O)NC2C3CC4CC(C3)CC2C4)c1=O (stereo partly drawn) [III-15, (S,E)-methyl 6-(3,5-dibromothiophene-2-carboxamido)-7-(1-(2-(2-adamantylamino)-2-oxoethyl)-2-oxo-1,2-dihydropyridin-3-ylamino)-7-oxohept-2-enoate] | < 25 | 3 to 5 | 1 to 10
2 | COC(=O)/C=C/CC[C@H](NC(=O)c1cc(Br)sc1Br)C(=O)Nc1cccn(CC(=O)NC2C3CC4CC(C3)CC2C4)c1=O (stereo partly drawn) [III-16, (S,E)-methyl 6-(2,5-dibromothiophene-3-carboxamido)-7-(1-(2-(2-adamantylamino)-2-oxoethyl)-2-oxo-1,2-dihydropyridin-3-ylamino)-7-oxohept-2-enoate] | < 25 | 3 to 5 | 1 to 10
3 | COC(=O)/C=C/CC[C@H](NC(=O)c1csc(Br)c1)C(=O)Nc1cccn(CC(=O)NC2C3CC4CC(C3)CC2C4)c1=O (stereo partly drawn) [III-17, (S,E)-methyl 6-(5-bromothiophene-3-carboxamido)-7-(1-(2-(2-adamantylamino)-2-oxoethyl)-2-oxo-1,2-dihydropyridin-3-ylamino)-7-oxohept-2-enoate] | < 25 | 3 to 5 | < 1
4 | COC(=O)/C=C/CC[C@H](NC(=O)c1cc(Br)cs1)C(=O)Nc1cccn(CC(=O)NC2C3CC4CC(C3)CC2C4)c1=O (stereo partly drawn) [III-18, (S,E)-methyl 6-(4-bromothiophene-2-carboxamido)-7-(1-(2-(2-adamantylamino)-2-oxoethyl)-2-oxo-1,2-dihydropyridin-3-ylamino)-7-oxohept-2-enoate] | < 25 | 3 to 5 | < 1
5 | COC(=O)/C=C/CC[C@H](NC(=O)c1cc(Br)c(Br)s1)C(=O)Nc1cccn(CC(=O)NC2C3CC4CC(C3)CC2C4)c1=O (stereo partly drawn) [III-19, (S,E)-methyl 6-(4,5-dibromothiophene-2-carboxamido)-7-(1-(2-(2-adamantylamino)-2-oxoethyl)-2-oxo-1,2-dihydropyridin-3-ylamino)-7-oxohept-2-enoate] | < 25 | 3 to 5 | 1 to 10
6 | COC(=O)/C=C/CC[C@H](NC(=O)c1cc(Cl)c(Cl)s1)C(=O)Nc1cccn(CC(=O)NC2C3CC4CC(C3)CC2C4)c1=O (stereo partly drawn) [III-20, (S,E)-methyl 6-(4,5-dichlorothiophene-2-carboxamido)-7-(1-(2-(2-adamantylamino)-2-oxoethyl)-2-oxo-1,2-dihydropyridin-3-ylamino)-7-oxohept-2-enoate] | < 25 | 3 to 5 | 1 to 10
7 | COC(=O)/C=C/CC[C@H](NC(=O)c1cnccn1)C(=O)Nc1cccn(CC(=O)NC2C3CC4CC(C3)CC2C4)c1=O (stereo partly drawn) [III-24, (S,E)-methyl 7-(1-(2-(2-adamantylamino)-2-oxoethyl)-2-oxo-1,2-dihydropyridin-3-ylamino)-7-oxo-6-(pyrazine-2-carboxamido)hept-2-enoate] | 25 to 250 | 1 to 3 | < 1

Other lines, results leading:

Row | IC50 [1] [nM] | logD [2] | Papp [3] [×10⁻⁶ cm/s] | Compound
8 | < 25 | 1 to 3 | < 1 | COC(=O)/C=C/CC[C@H](NC(=O)[C@@H]1CCCN1C(C)=O)C(=O)Nc1cccn(CC(=O)NC2C3CC4CC(C3)CC2C4)c1=O (stereo partly drawn) [III-21, (S,E)-methyl 6-((S)-1-acetylpyrrolidine-2-carboxamido)-7-(1-(2-(2-adamantylamino)-2-oxoethyl)-2-oxo-1,2-dihydropyridin-3-ylamino)-7-oxohept-2-enoate]
9 | < 25 | 1 to 3 | 1 to 10 | COC(=O)/C=C/CC[C@H](NC(=O)c1cnnn1C)C(=O)Nc1cccn(CC(=O)NC2C3CC4CC(C3)CC2C4)c1=O (stereo partly drawn) [III-22, (S,E)-methyl 7-(1-(2-(2-adamantylamino)-2-oxoethyl)-2-oxo-1,2-dihydropyridin-3-ylamino)-6-(1-methyl-1H-1,2,3-triazole-5-carboxamido)-7-oxohept-2-enoate]
10 | 25 to 250 | 1 to 3 | 1 to 10 | COC(=O)/C=C/CC[C@H](NC(=O)c1nn[nH]n1)C(=O)Nc1cccn(CC(=O)NC2C3CC4CC(C3)CC2C4)c1=O (stereo partly drawn) [III-23, (S,E)-methyl 7-(1-(2-(2-adamantylamino)-2-oxoethyl)-2-oxo-1,2-dihydropyridin-3-ylamino)-7-oxo-6-(2H-tetrazole-5-carboxamido)hept-2-enoate]
11 | 25 to 250 | 3 to 5 | < 1 | COC(=O)/C=C/CC[C@H](NC(=O)[C@@H]1CCCN1C)C(=O)Nc1cccn(CC(=O)NC2C3CC4CC(C3)CC2C4)c1=O (stereo partly drawn) [III-25, (S,E)-methyl 7-(1-(2-(2-adamantylamino)-2-oxoethyl)-2-oxo-1,2-dihydropyridin-3-ylamino)-6-((S)-1-methylpyrrolidine-2-carboxamido)-7-oxohept-2-enoate]
12 | 25 to 250 | 1 to 3 | 1 to 10 | COC(=O)/C=C/CC[C@H](NC(=O)[C@H]1CCNC1)C(=O)Nc1cccn(CC(=O)NC2C3CC4CC(C3)CC2C4)c1=O (stereo partly drawn) [III-26, (S,E)-methyl 7-(1-(2-(2-adamantylamino)-2-oxoethyl)-2-oxo-1,2-dihydropyridin-3-ylamino)-7-oxo-6-((S)-pyrrolidine-3-carboxamido)hept-2-enoate]
13 | 25 to 250 | 3 to 5 | < 1 | COC(=O)/C=C/CC[C@H](NC(=O)[C@@H]1C[C@H](Br)CN1)C(=O)Nc1cccn(CC(=O)NC2C3CC4CC(C3)CC2C4)c1=O (stereo partly drawn) [III-27, (S,E)-methyl 6-((2S,4S)-4-bromopyrrolidine-2-carboxamido)-7-(1-(2-(2-adamantylamino)-2-oxoethyl)-2-oxo-1,2-dihydropyridin-3-ylamino)-7-oxohept-2-enoate]
14 | 250 to 1500 | 3 to 5 | < 1 | COC(=O)/C=C/CC[C@H](NC(=O)c1c[nH]cn1)C(=O)Nc1cccn(CC(=O)NC2C3CC4CC(C3)CC2C4)c1=O (stereo partly drawn) [III-28, (S,E)-methyl 6-(1H-imidazole-4-carboxamido)-7-(1-(2-(2-adamantylamino)-2-oxoethyl)-2-oxo-1,2-dihydropyridin-3-ylamino)-7-oxohept-2-enoate]
15 | 25 to 250 | 3 to 5 | < 1 | COC(=O)/C=C/CC[C@H](NC(=O)[C@@H]1CCCCN1)C(=O)Nc1cccn(CC(=O)NC2C3CC4CC(C3)CC2C4)c1=O (stereo partly drawn) [III-29, (S,E)-methyl 7-(1-(2-(2-adamantylamino)-2-oxoethyl)-2-oxo-1,2-dihydropyridin-3-ylamino)-7-oxo-6-((S)-piperidine-2-carboxamido)hept-2-enoate]
16 | 25 to 250 | 3 to 5 | < 1 | COC(=O)/C=C/CC[C@H](NC(=O)[C@@H]1CCCNC1)C(=O)Nc1cccn(CC(=O)NC2C3CC4CC(C3)CC2C4)c1=O (stereo partly drawn) [III-30, (S,E)-methyl 7-(1-(2-(2-adamantylamino)-2-oxoethyl)-2-oxo-1,2-dihydropyridin-3-ylamino)-7-oxo-6-((R)-piperidine-3-carboxamido)hept-2-enoate]
17 | 25 to 250 | 1 to 3 | < 1 | COC(=O)/C=C/CC[C@H](NC(=O)[C@H]1COCCN1)C(=O)Nc1cccn(CC(=O)NC2C3CC4CC(C3)CC2C4)c1=O (stereo partly drawn) [III-31, (S,E)-methyl 7-(1-(2-(2-adamantylamino)-2-oxoethyl)-2-oxo-1,2-dihydropyridin-3-ylamino)-6-((R)-morpholine-3-carboxamido)-7-oxohept-2-enoate]
